Where “and” joins values, the source holds several entries; their conditions need not be identical. Equal values may be shown once.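 Grown in 96-well plates, cells were treated for 48 hours with each compound at five concentrations. Insufficient inhibition: endpoint recorded as highest concentration tested. At the GI50, growth is halved. TGI is the concentration that stops growth completely.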
Legend:
Assay in all cases: NCI tumour cell line growth inhibition, 48 h
K-562 leukemia = test system: K-562 leukemia
SF-539 CNS = test system: SF-539 CNS
SW-620 colon = test system: SW-620 colon
T-47D breast = test system: T-47D breast
RXF 393 renal = test system: RXF 393 renal
OVCAR-5 ovarian = test system: OVCAR-5 ovarian
COLO 205 colon = test system: COLO 205 colon
HCC-2998 colon = test system: HCC-2998 colon
SK-MEL-28 melanoma = test system: SK-MEL-28 melanoma
EKVX NSCLC = test system: EKVX NSCLC

| Structure (SMILES) | TGI (K-562 leukemia) | TGI (SF-539 CNS) | TGI (SW-620 colon) | TGI (T-47D breast) | TGI (RXF 393 renal) | TGI (OVCAR-5 ovarian) | TGI (COLO 205 colon) | TGI (HCC-2998 colon) | TGI (SK-MEL-28 melanoma) | TGI (EKVX NSCLC) | GI50 (K-562 leukemia) | GI50 (SF-539 CNS) | GI50 (SW-620 colon) | GI50 (T-47D breast) | GI50 (RXF 393 renal) | GI50 (OVCAR-5 ovarian) | GI50 (COLO 205 colon) | GI50 (HCC-2998 colon) | GI50 (SK-MEL-28 melanoma) | GI50 (EKVX NSCLC) |
| --- | --- | --- | --- | --- | --- | --- | --- | --- | --- | --- | --- | --- | --- | --- | --- | --- | --- | --- | --- | --- |
| COc1cc(-c2oc3ccccc3c(=O)c2O)cc(OC)c1OC | > 100 µM | > 100 µM | > 100 µM | > 100 µM | 42.6 µM | > 100 µM | > 100 µM | > 100 µM | > 100 µM | > 100 µM | – | – | – | – | – | – | – | – | – | – |
| CC1(C)CCC(C)(C)c2cc(C(=O)Nc3ccc(C(=O)O)cc3)ccc21 | > 100 µM | 30.3 µM | > 100 µM | > 79.4 µM | > 42 µM | > 100 µM | 36 µM | 37.2 µM | > 90.8 µM | > 100 µM | – | – | – | – | – | – | – | – | – | – |
| COC1/C=C/OC2(C)Oc3c(C)c(O)c4c(c3C2=O)C(=O)C=C(NC(=O)/C(C)=C\C=C\C(C)C(OC=O)C(C)C(O)C(C)C(OC(C)=O)C1C)C4=O (stereo not drawn) | 20.7 µM | 32.9 µM | 14 µM | 11.6 µM | 19 µM | 36.4 µM | 18 µM | 35.4 µM | 15 µM | 25.8 µM | – | – | – | – | – | – | – | – | – | – |
| CN1CCCN(CCNc2nccc(-c3c(-c4cccc(O)c4)nc4sccn34)n2)S1(=O)=O | 75 µM and > 100 µM | 75 µM and > 100 µM | 75 µM and > 100 µM | 57.1 µM and > 88.7 µM | 31 µM and 21.6 µM | 75 µM and > 100 µM | 12.4 µM and 21.8 µM | 34.5 µM and > 88.2 µM | 60.8 µM and 40.3 µM | 75 µM and > 100 µM | 12.9 µM and 5.9 µM | 18.7 µM and 22.2 µM | 18.7 µM and 19.1 µM | 14.2 µM and 11.8 µM | 5.26 µM and 2.72 µM | 27 µM and 32.3 µM | 0.423 µM and 0.477 µM | 13.4 µM and 19.4 µM | 0.168 µM and 0.226 µM | 31.1 µM and 30.3 µM |
| Cn1cc(C2=C(c3cn(C)c4ccc(N)cc34)C(=O)NC2=O)c2ccccc21 | > 25 µM | 24.4 µM | > 25 µM | > 25 µM | > 25 µM | > 25 µM | > 20.5 µM | > 25 µM | > 25 µM | – | 1.92 µM | 6.14 µM | 5 µM | 18.8 µM | 8.13 µM | > 25 µM | 6 µM | > 25 µM | 17.2 µM | – |
| Cc1cc(N(CCNc2ccnc3cc(Cl)ccc23)Cc2ccc3c(c2)OCO3)nc(N2CCN(C)CC2)n1 | 3.93 µM | 3.33 µM | 5.41 µM | 4.64 µM | 3.17 µM | 18.3 µM | 3.69 µM | 4.88 µM | 3.53 µM | 18.9 µM | 1.16 µM | 1.78 µM | 2.08 µM | 2.05 µM | 1.43 µM | 5.5 µM | 1.86 µM | 2.12 µM | 1.89 µM | 4.4 µM |
| O=C(Nc1ccc(OC(F)(F)F)cc1)c1sccc1NCc1ccnc2ccccc12 | > 100 µM | > 100 µM | > 100 µM | > 95.9 µM | 6.96 µM | > 100 µM | 13.8 µM | > 100 µM | > 100 µM | > 100 µM | 1.61 µM | 4.3 µM | 5.03 µM | 2.48 µM | 1.8 µM | 7.73 µM | 3.74 µM | 4.82 µM | 5.64 µM | 2.35 µM |
